Assay results as given in patent publication US20260306633A1, “A COMBINATION THERAPY FOR CANCER TREATMENT” (Purdue Research Foundation, priority 2023, published 2026).

Columns and labels:
Type in all cases: cell-based, human
[1] = tested on: TNBC BT-549 cells; assay: Cell survival / cell inhibition (MTT cell cytotoxicity assay) after 24 h treatment with photosensitizer and/or chemotherapeutic agent, dark or light-irradiated; details: for cell inhibition (%), combination with cisplatin / cell inhibition (%), combination with doxorubicin / cell inhibition (%), combination with fluorouracil / cell inhibition (%), combination with methotrexate / cell inhibition (%), combination with paclitaxel / cell survival, co-treatment with fluorouracil in the dark / cell survival, co-treatment with paclitaxel in the dark: 24 h; for cell inhibition (%), combination with cisplatin / cell inhibition (%), combination with doxorubicin / cell inhibition (%), combination with fluorouracil / cell inhibition (%), combination with methotrexate / cell inhibition (%), combination with paclitaxel: light 0.96 J cm−2; for cell inhibition (%), combination with doxorubicin: PS 100 nM + doxorubicin 500 nM; for cell inhibition (%), combination with fluorouracil / cell survival, co-treatment with fluorouracil in the dark: PS 100 nM + fluorouracil 25 μM; for cell inhibition (%), combination with methotrexate: PS 100 nM + methotrexate 500 nM; for cell inhibition (%), combination with paclitaxel / cell survival, co-treatment with paclitaxel in the dark: PS 100 nM + paclitaxel 50 nM; for cytotoxicity in the absence of light, PS alone: PS 500 nM; for cytotoxicity in the absence of light, PS alone / cell survival, co-treatment with fluorouracil in the dark / cell survival, co-treatment with paclitaxel in the dark: dark
Procedure: Human mammary epithelial carcinoma cell lines purchased from the American Type Culture Collection BT-549 (ATCC HTB-122) were cultured according to ATCC protocol. BT-549 cells were grown in RPMI 1640 containing 0.023 IU/mL insulin and supplemented with 10% fetal bovine serum (FBS). Cells were grown to 80-90% confluence in 75-cm^2 culture flasks (Corning) for 4-5 days in a humidified incubator (Fisher Scientific Isotemp) with 5% CO2 at 37° C. During the incubation period, growth media was changed once with fresh pre-warmed media (pH 7.2). To harvest the cells, old growth media was aspirated out, and 3 mL 0.25% trypsin solution (Thermo Sci Hyclone) were added. The cells were incubated for 5 minutes, and the cell pellet after centrifugation was resuspended in 3 mL media, broken up gently, then 1 mL of suspended cells was transferred into a new T75 cell culture flask containing pre-warmed media (20 mL) for further culturing.
(§1) Cells were grown to confluence in a 96-well plate (9×10^3 cells/well) and co-treated for 24 hours with synthesized photosensitizers (PSs) and chemotherapeutic agents of varying concentrations ranging from 5 nM to 50 μM) in growth media from a stock solution of 10 mM in DMSO (dimethyl sulfoxide, Fisher). After 24-hour treatment, old growth media containing the PSs or compounds were aspirated out and replaced with fresh media. Plates were then positioned below a non-coherent LumaCare LC-122 650 nm light source for 1 minute at an energy fluence rate of 0.96 J/cm^2 and a power of 16 mW/cm^2 (measured using a Newport optical power meter Model 840). Unirradiated cells served as control samples. The following day, cells were washed with pre-warmed PBS, and 11MTT (3-[4,5-dimethyl-thiazol-2-yl]-2.5-diphenyltetrazolium bromide, Sigma, 0.3 mg/mL) in PBS was added to each well. Samples were allowed to incubate for additional 2 hours, after which dark blue crystals formed. DMSO was added to each well and plates were shaken at room temperature for 1 hour to dissolve the purplish-blue formazan crystals. Absorbance values at 570 nm were measured on a microplate reader (BioRad 550). Cell survival was calculated based on the absorbance of the untreated cells alone (as control) and were directly proportional to the number of viable cells in culture. Results were reported as the mean±SD of triplicate measurements.
The unmetallated PS and the indium complexes were used.
Light dose corresponds to an energy fluence rate of 0.96 J/cm^2 used.
Power of 16 mW/cm^2 used.
Cell inhibition in TNBC cells is based on the cell survival (MTT) assay of the binary therapy, blending the effect of PDT and chemotherapeutic agents. […] MePheo serves as a control compound. TNBC cells were then exposed to light after binary treatment for 24 hours.

[2] = tested on: TNBC cells; assay: Combination index (CI) of binary therapy, Chou-Talalay method, CompuSyn software
Procedure: (§2) The calculated CI values are based on 50 nM concentration for the PSs, 50 nM paclitaxel, 500 nM doxorubicin, 25 μM cisplatin, 25 μM fluorouracil, and 500 nM methotrexate.
as §1
The combination index (CI) for the binary treatment of TNBC cells with a PS and a chemotherapeutic drug was calculated based on the Chou-Talalay method using CompuSyn software. […] The unified dynamics algorithm uses a minimum of dose-data points to fit the general MAL theory.
as §2

[3] = tested on: TNBC cells; assay: as above; details: PS 50 nM + methotrexate 500 μM (footnote 500 nM)
[4] = PS 100 nM + cisplatin 25 μM, light

SMILES | cell inhibition (%), combination with cisplatin ([1]; PS 100 nM + cisplatin 25 μM) | cell inhibition (%), combination with doxorubicin [1] | cell inhibition (%), combination with fluorouracil [1] | cell inhibition (%), combination with methotrexate [1] | cell inhibition (%), combination with paclitaxel [1] | cytotoxicity in the absence of light, PS alone [1] | effect of added cisplatin compared to cisplatin-treated cell viability [1, 4] | cell survival, co-treatment with fluorouracil in the dark [1] | cell survival, co-treatment with paclitaxel in the dark [1] | other results
C=Cc1c(C)c2cc3nc(c(CC(=O)OC)c4[nH]c(cc5nc(cc1[nH]2)C(C)=C5CC)c(C)c4C(=O)NCCCCCCNC(=O)c1ccc(C(=C)c2cc4c(cc2C)C(C)(C)CCC4(C)C)cc1)[C@@H](CCC(=O)OC)[C@@H]3C [CBX, chlorin bexarotene conjugate] | 0% | 30% | 6% | 42% | 48% | No cytotoxicity | – | – | – | –
C=Cc1c(C)c2cc3nc(c(CC(=O)OC)c4[nH]c(cc5nc(cc1[nH]2)C(C)=C5CC)c(C)c4C(=O)NCCCCCCNC(=O)CCCC[C@@H]1CCSS1)[C@@H](CCC(=O)OC)[C@@H]3C [CLA, chlorin lipoic acid conjugate] | 65% | 33% | 35% | 43% | 45% | No cytotoxicity | reduced cell survival | 84% | 59% | cell survival, co-treatment with cisplatin upon light ([1]; PS 100 nM + cisplatin 25 μM, light, 1440 min): 35%; cell survival, PS alone ([1]; PS 100 nM, light 0.96 J/cm^2, 1440 min): 90%; combination therapy vs monotherapy (cisplatin) ([1]; PS + cisplatin, light): better photodynamic effect when co-treated with cisplatin than PS-treatment alone
C=Cc1c(C)c2cc3nc(c4c5[nH]c(cc6nc(cc1[nH]2)C(C)=C6CC)c(C)c5C(=O)[C@@H]4C(=O)OC)[C@@H](CCC(=O)OC)[C@@H]3C [MePheo, methyl pheophorbide, reference compound] | 39% | 36% | 34% | 40% | 55% | No cytotoxicity | reduced cell survival | 61% | 46% | cell viability reduction (difference) vs PS alone ([1]; PS at lower concentration (CPA: 50 nM) + methotrexate 500 nM, light): 10%; combination index (CI) with cisplatin ([2]; PS 50 nM + cisplatin 25 μM): 6.10; synergism vs additive vs antagonism effect with cisplatin ([2]; PS 50 nM + cisplatin 25 μM): (SA) (SA (3.3-10), strong antagonism); combination index (CI) with doxorubicin ([2]; PS 50 nM + doxorubicin 500 nM): 6.37; synergism vs additive vs antagonism effect with doxorubicin ([2]; PS 50 nM + doxorubicin 500 nM): (SA) (SA (3.3-10), strong antagonism); combination index (CI) with fluorouracil ([2]; PS 50 nM + fluorouracil 25 μM): 17.96; synergism vs additive vs antagonism effect with fluorouracil ([2]; PS 50 nM + fluorouracil 25 μM): (VSA) (VSA (>10), very strong antagonism); combination index (CI) with paclitaxel ([2]; PS 50 nM + paclitaxel 50 nM): 13.27; synergism vs additive vs antagonism effect with paclitaxel ([2]; PS 50 nM + paclitaxel 50 nM): (VSA) (VSA (>10), very strong antagonism); combination index (CI) with methotrexate [3]: 7.79; synergism vs additive vs antagonism effect with methotrexate [3]: (SA) (SA (3.3-10), strong antagonism)
